# Molecular target: T1, wtKIT (Homo sapiens, UniProt P10721)
# T1 construct: 1888289AM in the reaction mixtures
# Experiment: HTRF biochemical assay, wtKIT (phosphorylation of a peptide substrate)
# Details: Table 4
# Experimental: Exemplary compounds were tested for ability to inhibit the phosphorylation of a peptide substrate by the tyrosine kinase wt KIT, PDGFRα, or CSF-1R. Assay procedures and results are described below.
# Enzyme, substrate, and cofactors (ATP and Mn^2+) are combined in a well of a microtiter plate and incubated for 3 hours at 25° C. At the end of the incubation, the reaction is quenched by the addition of an EDTA-containing buffer.
# The substrate used in the CSF-1R and PDGFRα assay is FAM-[…]-CONH2 (FAM is carboxyfluorescein). Peptide should be >95% purity. The substrate for the KIT assay is FAM-[…]-NH2.
# • 1. To a well of a 384-wellplate add 5 μL of 2× enzyme buffer (or control). • 2. Add 100 nL of 100× compound. Enzyme and compound may be pre-incubated at this time if desired. • 3. Add 5 μL of 2× substrate buffer. • 4. Incubate plate at 25° C. for 3 hours. • 5. Add 10 uL of anti-phosphotyrosine antibody buffer. • 6. Read plate in BioTek Synergy Reader. Reaction Conditions for wtKIT Assay
# • 100 mM HEPES, pH 7.5 0.1% BSA • 0.01% Triton x-100 • 1 mM DTT • 10 mM MnCl2 • 10 μM Sodium Orthovanadate • 10 μM Beta-Glycerophosphate • 400 μM ATP • 1% DMSO (from compound) • 1 μM FAM-[…]-CONH2, 5.0 nM wtKIT Enzyme (1888289AM)* • *Specific activity may vary from lot to lot. Enzyme concentration may need to be adjusted to yield 10-20% conversion of substrate to product.
# T1 sequence (P10721 26-976): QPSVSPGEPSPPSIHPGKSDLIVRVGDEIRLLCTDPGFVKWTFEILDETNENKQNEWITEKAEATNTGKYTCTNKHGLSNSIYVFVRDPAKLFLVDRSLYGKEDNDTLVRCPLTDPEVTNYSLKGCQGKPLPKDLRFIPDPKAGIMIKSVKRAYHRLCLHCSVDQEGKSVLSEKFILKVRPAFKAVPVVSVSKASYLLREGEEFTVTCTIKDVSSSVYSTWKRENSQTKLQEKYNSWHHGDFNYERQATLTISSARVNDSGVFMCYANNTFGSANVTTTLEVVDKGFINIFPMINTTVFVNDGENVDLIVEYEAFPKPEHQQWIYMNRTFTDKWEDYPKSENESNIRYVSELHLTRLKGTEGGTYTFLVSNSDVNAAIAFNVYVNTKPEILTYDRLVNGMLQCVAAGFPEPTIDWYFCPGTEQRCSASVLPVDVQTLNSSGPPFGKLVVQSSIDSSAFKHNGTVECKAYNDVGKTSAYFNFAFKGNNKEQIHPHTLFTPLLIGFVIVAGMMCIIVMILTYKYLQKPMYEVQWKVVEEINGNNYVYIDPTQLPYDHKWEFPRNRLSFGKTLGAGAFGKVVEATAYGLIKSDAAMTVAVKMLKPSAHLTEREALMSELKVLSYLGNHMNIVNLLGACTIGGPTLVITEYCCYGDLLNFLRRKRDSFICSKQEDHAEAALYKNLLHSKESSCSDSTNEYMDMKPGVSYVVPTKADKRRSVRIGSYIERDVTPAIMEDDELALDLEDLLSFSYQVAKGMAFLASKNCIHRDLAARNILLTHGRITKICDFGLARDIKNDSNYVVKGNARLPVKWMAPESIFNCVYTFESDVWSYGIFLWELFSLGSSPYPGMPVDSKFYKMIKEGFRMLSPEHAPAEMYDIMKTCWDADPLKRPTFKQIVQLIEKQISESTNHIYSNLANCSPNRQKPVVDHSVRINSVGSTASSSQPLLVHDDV
row,SMILES,IC50 [nM]
1,"COc1ccn2c(C(=O)Nc3cc(-c4noc(Cc5ccccc5)n4)ccc3C)cnc2c1 [Compound I-552, N-(5-(5-benzyl-1,2,4-oxadiazol-3-yl)-2-methylphenyl)-7-methoxyimidazo[1,2-a]pyridine-3-carboxamide]",≤ 50
2,CNC(C)COCc1ccn2c(C(=O)Nc3cc(-c4noc(CC(O)C(F)F)n4)ccc3C)cnc2c1 (stereo not drawn) [Compound I-599],50 to 500
3,COCC(O)Cc1nc(-c2ccc(C)c(NC(=O)c3cnc4ccccn34)c2)no1 (stereo not drawn) [Compound I-528],50 to 500
4,"Cc1ccc(-c2noc([C@@H]3CC4(CC4)CN3)n2)cc1NC(=O)c1cnc2cc(-c3cscn3)ccn12 [Compound I-635, N-[5-[5-[(6S)-5-azaspiro[2.4]heptan-6-yl]-1,2,4-oxadiazol-3-yl]-2-methyl-phenyl]-7-thiazol-4-yl-imidazo[1,2-a]pyridine-3-carboxamide]",≤ 50
5,"Cc1ccn2c(C(=O)Nc3cc(-c4noc(C5CCC(F)(F)CC5)n4)ccc3C)cnc2c1 [Compound I-540, 4 N-(5-(5-(4,4-difluorocyclohexyl)-1,2,4-oxadiazol-3-yl)-2-methylphenyl)-7-methylimidazo[1,2-a]pyridine-3-carboxamide]",≤ 50
6,Cc1ccc(-c2ncon2)cc1NC(=O)c1cnc2cc(-c3csc(CO)n3)ccn12 [Compound I-685],≤ 50
7,"Cc1ccc(-c2noc([C@H]3C[C@@H]3F)n2)cc1NC(=O)c1cnc2cc3c(cn12)C(C)OC3 (single isomer, unassigned) [Compound I-483, (4R*)—N-[5-[5-[(1R,2S)-2-fluorocyclopropyl]-1,2,4-oxadiazol-3-yl]-2-methyl-phenyl]-4-methyl-5-oxa-1,10-diazatricyclo[7.3.0.0^3,7]dodeca-2,7,9,11-tetraene-12-carboxamide]",≤ 50
8,Cc1ccc(-c2noc(C[C@H](C)O)n2)cc1NC(=O)c1cnc2cc(Cl)ccn12 [Compound I-602],≤ 50
9,"Cc1ccc(-c2noc(C[C@H](O)C(F)F)n2)cc1NC(=O)c1cnc2cc(OCCO)ccn12 [Compound I-570, (S)—N-(5-(5-(3,3-difluoro-2-hydroxypropyl)-1,2,4-oxadiazol-3-yl)-2-methylphenyl)-7-(2-hydroxyethoxy)imidazo[1,2-a]pyridine-3-carboxamide]",≤ 50
10,CCc1nc(-c2ccc(C)c(NC(=O)c3cnc4cc(COC)ccn34)c2)no1 [Compound I-734],≤ 50
11,"Cc1ccc(-c2noc(C3CC3F)n2)cc1NC(=O)c1cnc2cc(C(C)OCCO)ccn12 (single isomer, unassigned) [Compound I-450, N-[5-[5-[(1R,2S)-2-fluorocyclopropyl]-1,2,4-]-7-[(1S*)-1-(2-hydroxyethoxadiazol-3-yl]-2-methyl-phenyloxy)ethyl]imidazo[1,2-a]pyridine-3-carboxamide]",≤ 50
12,"Cc1ccc(-c2noc([C@H]3C[C@@H]3F)n2)cc1NC(=O)c1cnc2cc(CCC(C)(C)CO)ccn12 [Compound I-474, N-[5-[5-[(1R,2S)-2-fluorocyclopropyl]-1,2,4-oxadiazol-3-yl]-2-methyl-phenyl]-7-(4-hydroxy-3,3-dimethyl-butyl)imidazo[1,2-a]pyridine-3-carboxamide]",≤ 50
13,Cc1ccc(-c2nc(-c3ccc(C)c(NC(=O)c4cnc5cc(C)ccn45)c3)no2)nc1 [Compound I-544],50 to 500
14,"CC[C@@H](O)Cc1nc(-c2ccc(C)c(NC(=O)c3cnc4cc(Cl)ccn34)c2)no1 [Compound I-616, 7-chloro-N-[5-[5-[(2R)-2-hydroxybutyl]-1,2,4-oxadiazol-3-yl]-2-methyl-phenyl]imidazo[1,2-a]pyridine-3-carboxamide]",≤ 50
15,"Cc1nc(-c2ccc(C)c(NC(=O)c3cnn4cc(-c5ccn(C)n5)ccc34)c2)no1 [Compound I-535, 6-(1-methyl-1H-pyrazol-3-yl)-N-(2-methyl-5-(5-methyl-1,2,4-oxadiazol-3-yl)phenyl)pyrazolo[1,5-a]pyridine-3-carboxamide]",≤ 50
